Data published in patent US8686044B2, “Amide derivative, pest control agent containing the amide derivative, and use of the amide derivative” (Mitsui Chemicals Agro, Inc., priority 2008, dated 2014).

Key:
Format in all cases: in vivo
[1] = tested on: Helicoverpa armigera; test: Pesticidal test against Helicoverpa armigera (cabbage leaf disk dip); settings: foliar, 72 h, concentration 1 ppm, 2-stage larvae, examined after 3 days, 25° C., read-out: pesticidal rate
Procedure, shortened: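 Cabbage leaf disks were dipped for 30 s in test solution at a set concentration and air-dried. Second-instar larvae were placed one per hole and held at 25 °C, with live and dead counts taken after 3 days. Five larvae per group were tested in two replicates.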

[2] = tested on: Spodoptera litura; test: Pesticidal test against Spodoptera litura (cabbage leaf dip); settings: foliar, 144 h, concentration 1 ppm, 2-stage larvae, examined after 6 days, 25° C., read-out: pesticidal rate
Procedure, shortened: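 Cabbage leaf pieces dipped 30 seconds in compound solution at a predetermined concentration and air-dried, then offered to second-stage larvae, five per group in two replicates. Held at 25° C. Living and dead larvae counted after 6 days.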

[3] = tested on: Laodelphax striatellus; test: Pesticidal test against Laodelphax striatellus (rice seedling spray); settings: 144 h, concentration 100 ppm, 3-stage larvae, examined after 6 days, 25° C., read-out: pesticidal rate
Procedure, shortened: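 Rice seedlings sprayed with 2.5 ml acetone solution of compound at a predetermined concentration, air-dried, then infested with third-stage Laodelphax striatellus larvae in capped water-containing tubes at 25 °C. Living and dead insects counted after 6 days; ten larvae per group, two replicates.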

[4] = tested on: Adoxophyes honmai; test: Pesticidal test against Adoxophyes honmai (artificial feed dip); settings: 144 h, 2-stage larvae, examined after 6 days, 25° C., read-out: pesticidal rate; for pest or weed control at 1 ppm: concentration 1 ppm; for pest or weed control at 10 ppm: concentration 10 ppm
Procedure, shortened: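 Second-instar larvae, five per group in duplicate, were released onto air-dried feed slices previously immersed for 30 s in compound solution at a set concentration. Mortality was scored on day 6 at 25° C.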

[5] = tested on: Musca domestica; test: Pesticidal test against Musca domestica (petri dish dry film); settings: 24 h, concentration 100 ppm, female adults, examined after 1 day, 25° C., read-out: pesticidal rate
Procedure, shortened: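 Female adult houseflies were confined at 25° C in capped 9 cm petri dishes coated with an air-dried film from 1 ml acetone solution of compound (predetermined concentration). Mortality was scored 1 day later, two replicates of five per group.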

[6] = tested on: Blattella germanica; test: Pesticidal test against Blattella germanica (petri dish dry film); settings: 24 h, concentration 100 ppm, female adults, examined after 1 day, 25° C., read-out: pesticidal rate
Method: Pesticidal Test against Blattella germanica
1 ml of an acetone solution in which a test compound had been prepared at a predetermined concentration was added dropwise to a petri dish having a diameter of 9 cm, and air-dried, and then the female adults of Blattella germanica were released and the petri dish was capped. They were left to stand in a thermostatic chamber at 25° C., and the numbers of the living pests and the dead pests were examined after 1 day. The test was carried out with five larvae per group in two replicates.

[7] = tested on: Plutella xylostella; test: Pesticidal test against Plutella xylostella (cabbage leaf dip); settings: foliar, 144 h, concentration 1 ppm, 2-stage larvae, examined after 6 days, 25° C., read-out: pesticidal rate
Procedure, shortened: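 Second-stage larvae (5 per group, two replicates) were released onto air-dried cabbage leaf discs that had been immersed for 30 seconds in compound solution at a set concentration. Mortality was scored after 6 days at 25° C.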

O=C(Nc1c(Br)cc(C(F)(C(F)(F)F)C(F)(F)C(F)(F)F)cc1C(F)(F)F)c1cccc(NC(=O)c2ccccc2F)c1 (stereo not shown) [6-347]
≥ 70%: pest or weed control at 1 ppm [1] | pest or weed control at 1 ppm [2] | pest or weed control at 100 ppm [3] | pest or weed control at 1 ppm [4] | pest or weed control at 100 ppm [5] | pest or weed control at 100 ppm [6] | pest or weed control at 1 ppm [7]

O=C(Nc1cccc(C(=O)Nc2c(Br)cc(C(F)(C(F)(F)F)C(F)(F)F)cc2C(F)(F)F)c1F)c1cccc(F)c1 [6-1576]
≥ 70%: pest or weed control at 1 ppm [1] | pest or weed control at 1 ppm [2] | pest or weed control at 100 ppm [3] | pest or weed control at 1 ppm [4] | pest or weed control at 100 ppm [5] | pest or weed control at 100 ppm [6] | pest or weed control at 1 ppm [7]

O=C(Nc1c(Br)cc(C(F)(C(F)(F)F)C(F)(F)F)cc1Br)c1cccc(NC(=O)c2c(F)cccc2F)c1F [6-1126]
≥ 70%: pest or weed control at 1 ppm [2] | pest or weed control at 100 ppm [3] | pest or weed control at 100 ppm [5] | pest or weed control at 100 ppm [6] | pest or weed control at 1 ppm [7]

O=C(Nc1c(Br)cc(C(F)(C(F)(F)F)C(F)(F)C(F)(F)F)cc1Br)c1cccc(NC(=O)c2c(F)cccc2F)c1F (stereo not shown) [6-1204]
≥ 70%: pest or weed control at 1 ppm [2] | pest or weed control at 100 ppm [3] | pest or weed control at 100 ppm [5] | pest or weed control at 100 ppm [6] | pest or weed control at 1 ppm [7]

O=C(Nc1cccc(C(=O)Nc2c(Br)cc(C(F)(C(F)(F)F)C(F)(F)C(F)(F)F)cc2C(F)(F)F)c1)c1ccc(Cl)nc1 (stereo not shown) [6-389]
≥ 70%: pest or weed control at 1 ppm [1] | pest or weed control at 1 ppm [2] | pest or weed control at 10 ppm [4] | pest or weed control at 100 ppm [5] | pest or weed control at 100 ppm [6] | pest or weed control at 1 ppm [7]

O=C(Nc1cccc(C(=O)Nc2c(I)cc(C(F)(C(F)(F)F)C(F)(F)C(F)(F)F)cc2I)c1F)c1ccccc1 (stereo not shown) [6-1338]
≥ 70%: pest or weed control at 1 ppm [2] | pest or weed control at 100 ppm [3] | pest or weed control at 100 ppm [5] | pest or weed control at 100 ppm [6] | pest or weed control at 1 ppm [7]

CN(C(=O)c1cccnc1Cl)c1cccc(C(=O)Nc2c(I)cc(C(F)(C(F)(F)F)C(F)(F)F)cc2C(F)(F)F)c1F [7-1766]
≥ 70%: pest or weed control at 1 ppm [2] | pest or weed control at 100 ppm [3] | pest or weed control at 100 ppm [5] | pest or weed control at 100 ppm [6] | pest or weed control at 1 ppm [7]

N#Cc1ccc(C(=O)Nc2cccc(C(=O)Nc3c(I)cc(C(F)(C(F)(F)F)C(F)(F)C(F)(F)F)cc3I)c2F)cc1 (stereo not shown) [6-1359]
≥ 70%: pest or weed control at 1 ppm [1] | pest or weed control at 1 ppm [2] | pest or weed control at 100 ppm [3] | pest or weed control at 100 ppm [5] | pest or weed control at 100 ppm [6] | pest or weed control at 1 ppm [7]

O=C(Nc1c(Br)cc(C(F)(C(F)(F)F)C(F)(F)C(F)(F)F)cc1C(F)(F)F)c1cccc(NC(=O)c2c(F)cccc2F)c1 (stereo not shown) [6-368]
≥ 70%: pest or weed control at 1 ppm [2] | pest or weed control at 100 ppm [3] | pest or weed control at 100 ppm [5] | pest or weed control at 100 ppm [6] | pest or weed control at 1 ppm [7]

O=C(Nc1cccc(C(=O)Nc2c(I)cc(C(F)(C(F)(F)F)C(F)(F)F)cc2C(F)(F)F)c1F)c1ccccc1F [6-1731]
≥ 70%: pest or weed control at 1 ppm [2] | pest or weed control at 100 ppm [3] | pest or weed control at 100 ppm [5] | pest or weed control at 100 ppm [6] | pest or weed control at 1 ppm [7]

CN(C(=O)c1ccccc1F)c1cccc(C(=O)Nc2c(I)cc(C(F)(C(F)(F)F)C(F)(F)F)cc2C(F)(F)F)c1F [7-1731]
≥ 70%: pest or weed control at 1 ppm [1] | pest or weed control at 1 ppm [2] | pest or weed control at 100 ppm [3] | pest or weed control at 10 ppm [4] | pest or weed control at 100 ppm [5] | pest or weed control at 100 ppm [6] | pest or weed control at 1 ppm [7]

CN(C(=O)c1cccnc1Cl)c1cccc(C(=O)Nc2c(Br)cc(C(F)(C(F)(F)F)C(F)(F)C(F)(F)F)cc2Br)c1 (stereo not shown) [7-57]
≥ 70%: pest or weed control at 1 ppm [2] | pest or weed control at 100 ppm [3] | pest or weed control at 100 ppm [5] | pest or weed control at 100 ppm [6] | pest or weed control at 1 ppm [7]

O=C(Nc1cccc(C(=O)Nc2c(Br)cc(C(F)(C(F)(F)F)C(F)(F)C(F)(F)F)cc2Br)c1F)c1cccnc1Cl (stereo not shown) [6-1218]
≥ 70%: pest or weed control at 1 ppm [2] | pest or weed control at 100 ppm [3] | pest or weed control at 100 ppm [5] | pest or weed control at 100 ppm [6] | pest or weed control at 1 ppm [7]

CN(C(=O)c1c(F)cccc1F)c1cccc(C(=O)Nc2c(I)cc(C(F)(C(F)(F)F)C(F)(F)F)cc2C(F)(F)F)c1F [7-1752]
≥ 70%: pest or weed control at 1 ppm [2] | pest or weed control at 100 ppm [3] | pest or weed control at 100 ppm [5] | pest or weed control at 100 ppm [6] | pest or weed control at 1 ppm [7]

O=C(Nc1cccc(C(=O)Nc2c(Br)cc(C(F)(C(F)(F)F)C(F)(F)F)cc2C(F)(F)F)c1F)c1ccc(Cl)nc1 [6-1617]
≥ 70%: pest or weed control at 1 ppm [2] | pest or weed control at 100 ppm [3] | pest or weed control at 100 ppm [5] | pest or weed control at 100 ppm [6] | pest or weed control at 1 ppm [7]

CN(C(=O)c1cccnc1Cl)c1cccc(C(=O)Nc2c(I)cc(C(F)(C(F)(F)F)C(F)(F)F)cc2I)c1F [7-1296]
≥ 70%: pest or weed control at 1 ppm [2] | pest or weed control at 100 ppm [3] | pest or weed control at 100 ppm [5] | pest or weed control at 100 ppm [6] | pest or weed control at 1 ppm [7]

O=C(Nc1c(Br)cc(C(F)(C(F)(F)F)C(F)(F)C(F)(F)F)cc1Br)c1cccc(NC(=O)c2ccccc2F)c1 (stereo not shown) [6-39]
≥ 70%: pest or weed control at 1 ppm [2] | pest or weed control at 100 ppm [3] | pest or weed control at 100 ppm [5] | pest or weed control at 100 ppm [6] | pest or weed control at 1 ppm [7]

O=C(Nc1c(I)cc(C(F)(C(F)(F)F)C(F)(F)C(F)(F)F)cc1C(F)(F)F)c1cccc(NC(=O)c2cccnc2Cl)c1 (stereo not shown) [6-538]
≥ 70%: pest or weed control at 1 ppm [1] | pest or weed control at 1 ppm [2] | pest or weed control at 1 ppm [4] | pest or weed control at 100 ppm [5] | pest or weed control at 100 ppm [6] | pest or weed control at 1 ppm [7]

N#Cc1cccc(C(=O)Nc2cccc(C(=O)Nc3c(Br)cc(C(F)(C(F)(F)F)C(F)(F)F)cc3Br)c2F)c1 [6-1124]
≥ 70%: pest or weed control at 1 ppm [2] | pest or weed control at 100 ppm [3] | pest or weed control at 100 ppm [5] | pest or weed control at 100 ppm [6] | pest or weed control at 1 ppm [7]

O=C(Nc1cccc(C(=O)Nc2c(Br)cc(C(F)(C(F)(F)F)C(F)(F)C(F)(F)F)cc2Br)c1F)c1cccc(F)c1 (stereo not shown) [6-1184]
≥ 70%: pest or weed control at 1 ppm [2] | pest or weed control at 100 ppm [3] | pest or weed control at 100 ppm [5] | pest or weed control at 100 ppm [6] | pest or weed control at 1 ppm [7]

CN(C(=O)c1c(F)cccc1F)c1cccc(C(=O)Nc2c(Br)cc(C(F)(C(F)(F)F)C(F)(F)F)cc2C(F)(F)F)c1F [7-1596]
≥ 70%: pest or weed control at 1 ppm [2] | pest or weed control at 100 ppm [3] | pest or weed control at 100 ppm [5] | pest or weed control at 100 ppm [6] | pest or weed control at 1 ppm [7]

O=C(Nc1c(I)cc(C(F)(C(F)(F)F)C(F)(F)F)cc1C(F)(F)F)c1cccc(NC(=O)c2c(F)cccc2F)c1F [6-1752]
≥ 70%: pest or weed control at 1 ppm [2] | pest or weed control at 100 ppm [3] | pest or weed control at 100 ppm [5] | pest or weed control at 100 ppm [6] | pest or weed control at 1 ppm [7]

O=C(Nc1cccc(C(=O)Nc2c(Br)cc(C(F)(C(F)(F)F)C(F)(F)F)cc2Br)c1F)c1ccc(F)cc1 [6-1107]
≥ 70%: pest or weed control at 1 ppm [2] | pest or weed control at 100 ppm [3] | pest or weed control at 100 ppm [5] | pest or weed control at 100 ppm [6] | pest or weed control at 1 ppm [7]

O=C(Nc1c(Br)cc(C(F)(C(F)(F)F)C(F)(F)C(F)(F)F)cc1Br)c1cccc(NC(=O)c2c(F)cccc2F)c1 (stereo not shown) [6-47]
≥ 70%: pest or weed control at 1 ppm [2] | pest or weed control at 100 ppm [3] | pest or weed control at 100 ppm [5] | pest or weed control at 100 ppm [6] | pest or weed control at 1 ppm [7]

O=C(Nc1cccc(C(=O)Nc2c(Br)cc(C(F)(C(F)(F)F)C(F)(F)F)cc2Br)c1F)c1ccc(Cl)nc1 [6-1147]
≥ 70%: pest or weed control at 1 ppm [2] | pest or weed control at 100 ppm [3] | pest or weed control at 100 ppm [5] | pest or weed control at 100 ppm [6] | pest or weed control at 1 ppm [7]

O=C(Nc1cccc(C(=O)Nc2c(I)cc(C(F)(C(F)(F)F)C(F)(F)F)cc2C(F)(F)F)c1F)c1ccc(Cl)nc1 [6-1773]
≥ 70%: pest or weed control at 1 ppm [2] | pest or weed control at 100 ppm [3] | pest or weed control at 100 ppm [5] | pest or weed control at 100 ppm [6] | pest or weed control at 1 ppm [7]
